Laboratory results reported in US12208080B2, “Compositions and methods for modulation of extracellular vesicle release and treatment of neurological disorders” (GEORGE MASON RESEARCH FOUNDATION, INC., priority 2018, dated 2025).
Structures can show the parent of a compound that is named as a salt.

Columns and labels:
Format in all cases: cell-based
[1] = tested on: HTLV-1 infected T-cells (HUT 102); test: EV release from HTLV-1 infected T-cells, Western blot for Tax, CD63, CD9; details: 10 μM AZT, 10K units IFN-α or both, 5 days, FIG. 6
Experimental: HTLV-1 infected T-cells (HUT 102) were treated with 10 μM AZT, 10K units of IFN-α, or a combination of the two for 5 days. Resulting supernatants were enriched for extracellular vesicles using NT80/82 and analyzed by Western blot for the presence of Tax, CD63, CD9, and Actin.
The incorporation of the human T-lymphotropic virus type 1 (HTLV-1) protein, Tax, into extracellular vesicles has been implicated in enhanced survival of recipient cells thereby contributing to a cancer phenotype. Applicant examined the effect of Azidothymidine (AZT) and interferon-α (IFN-α), both therapeutics commonly used in the treatment of HTLV-1, on the release of EVs from HTLV-1 infected cells. Here, HTLV-1 infected T-cells (HUT 102) were treated with 10 μM AZT, 10K units of IFN-α, or a combination of the two for 5 days. Resulting supernatants were enriched for extracellular vesicles using NT80/82 and analyzed by Western blot for the presence of Tax, CD63, CD9, and Actin.

[2] = tested on: autophagy proteins (p62, LC3, ATG12-ATG5, ATG12, Beclin-1) in U1 cells; test: Autophagy protein profile, CBD versus autophagy drugs, in U1 cells and their EVs (Western blot); details: 5 days; for EV-associated LC3 II / EV-associated LC3 I / EV-associated p62: Bafilomycin A1 50 nM, SB 203580 20 μM, Wortmannin 2 nM; for EV-associated LC3 II: vs untreated infected control; for EV-associated LC3 I / EV-associated p62: CBD 10 μM, lower panel
Experimental: FIGS. 18A-18B are gels showing CBD promotes autophagy turnover, resulting in a decrease in extracellular autophagosomal secretion. A) U1 cells (1×10^6) were treated±CBD (10 μM) for the following incubation periods: 0, 6, 24, and 48 hours. Cells were pelleted and lysed, exosomes from supernatants were enriched with NT80/82 beads overnight at 4° C. Samples were run through SDS-PAGE and western blotted for autophagy proteins (p62 and LC3), and Actin. B) U1 cells (1×10^6) were treated±10 μM CBD (every day), Rapamycin (50 nM), INK128 (50 nM), Bafilomycin A1 (50 nM), SB 203580 (20 μM), Wortmannin (2 nM) for a 5-day incubation period. Cells were pelleted and lysed, exosomes from supernatants were enriched using NT80/82 beads overnight at 4° C. Samples were run through SDS-PAGE and western blotted for autophagy proteins (p62, LC3, ATG12-ATG5, ATG12, Beclin-1), and Actin.
FIGS. 21A-21K are graphs showing normalized densitometry analysis of CBD and autophagy drug treatment on HIV-1 infected monocytes. Intracellular (A) p62, (B) LC3 I, (C) LC3 II, (D) ATG12-ATG5 complex, (E) ATG12, and (F) Beclin-1, and extracellular (G) p62, (H) LC3 I, (I) LC3 II, (J) ATG12-ATG5 complex, and (K) Beclin-1 densitometry counts were calculated from the Western blot data in FIG. 5B, normalized to respective intracellular and extracellular Actin levels, and plotted.
To determine the specific points at which CBD inhibits intracellular and extracellular autophagosome formation and secretion, we compared CBD treatment of U1 monocytes with known inhibitors of different points in the autophagy pathway. Cell viability was assessed among a panel of titrated autophagy drugs and the least toxic concentration per drug was utilized (FIG. 20). We treated U1 cells with CBD (10 μM) every day, Rapamycin (50 nM), INK128 (50 nM), Bafilomycin A1 (50 nM), SB 203580 (20 μM), or Wortmannin (2 nM) for 5 days. Our rationale for using these drugs was that they regulate different steps of autophagy including nucleation inhibition by inhibiting MTOR activity (Rapamycin, INK128) or by inhibiting pre-autophagosomal VPS34 complex activity (Wortmannin, SB 203580), and autophagosome-lysosome fusion inhibition (Bafilomycin A1). Therefore, a side-by-side comparison to CBD would potentially allow for a better definition of which step of autophagosome formation is primarily regulated by CBD. U1 cells were treated with the autophagy regulators and harvested along with their corresponding supernatants for further analysis using Western blot against p62, LC3, ATG12-ATG5 complex, free ATG12, Beclin-1, and Actin. Results in FIG. 18B (intracellular proteins, top panel) show autophagy protein profiles associated with the various autophagy regulators. […] The corresponding supernatants were enriched for EVs and also analyzed for the presence of autophagy proteins.

[3] = tested on: ESCRT pathway proteins (VPS4); test: Western blot of ESCRT pathway proteins in U1 whole cell extracts; details: 0.1, 1, 10 μM, 5 days, FIG. 5B
Experimental: U1 cells were pretreated with cART (45 μM) for 3 days followed by an additional dose of cART and tetracycline antibiotics (10 nM) for 5 days. Cells were lysed, and extracts were used for Western blot analysis for ESCRT proteins [ESCRT-1 (TSG101), -11 (EAP20, EAP45), -III (CHMP6), and exit (VPS4)] and Actin levels. […]
U1 cells were treated with a titration of ethylene glycol-bis(p-aminoethyl ether)-N,N,N′,N′-tetraacetic acid (EGTA) (0.1, 1, and 10 μM) for 5 days and whole cell extracts were analyzed by Western blot for ESCRT pathway proteins and Actin.
Tetracycline class antibiotics including tetracycline, oxytetracycline, minocycline, doxycycline, methacycline, and demeclocycline have the potential to mitigate EV-associated pathogenesis by also modulating EV release. […] The tetracycline antibiotic family are chelators of divalent cations, including Ca2+ and Mg2+. Therefore, Applicant also tried to determine whether the chelating property of Oxytetracycline could possibly be responsible for the manipulation of the ESCRT pathway proteins levels.

[4] = tested on: RNA polymerase II (Pol II) loading; test: Chromatin immunoprecipitation of Pol II, qPCR for TAR DNA; details: U1; CBD 10 μM, Flavo 50 nM; 2-hour and 6-hour; FIG. 15C
Experimental: FIGS. 15A-15C are graphs and gels showing cannabidiols lower intracellular viral transcription and downstream viral products. U1 cells (1×10^6) were treated with a titration of CBD (1, 5, 10 μM) and THC (1, 5, 10 μg/mL) every day for 5 days. A) Intracellular RNA was isolated and analyzed through RT-qPCR for HIV-1 viral transcripts TAR and env. Each bar represents an average of three independent replicates. B) U1 cells (2×10^6) were treated with a titration of CBD (1, 5, 10 μM) every day for 5 days. Cells pellets were lysed, run through SDS-PAGE, and western blotted for (p-)/NF-κB, autophagosomal markers (p63, LC3), EV biogenesis marker VPS4, viral markers (gp120, Nef, p24), and Actin. C) U1 cells (5×10^6) were treated±CBD (10 μM) and Flavopiridol hydrochloride (50 nM; indicated as Flavo) and incubated for the following time points: 0 minutes, 2 hours and 6 hours. Cells were cross-linked with 1% formaldehyde solution and ChIP-ed for IgG and Pol II. ChIP DNA samples were analyzed via qPCR for TAR and env. Student's t-test was used for statistical analysis, where *p-value≤0.05; **p-value≤0.01, ***p-value≤0.001. […]
U1 monocytes were treated with CBD (10 μM) and Flavo (50 nM) for short periods (0, 2 and 6 hours) due to the fact that HIV-1 transcription activity is a rapid event that can be scored using chromatin immunoprecipitation (ChIP) assay for factor occupancy. […]

[5] = CBD 10 μM every day, Rapamycin 50 nM, INK128 50 nM, FIG. 18B top panel

Q: Cc1cn([C@H]2C[C@H](N=[N+]=[N-])[C@@H](CO)O2)c(=O)[nH]c1=O [AZT, 3′-azido-2′3′-di deoxythymidine] was tested. Which “amount of vesicles released (CD63 and CD9)” value [1] did it give?
A: The value was “increase in the amount of vesicles release”.

Q: CO/C1=C\C(C)=C\[C@@H](C)[C@@H](O)[C@@H](C)C/C(C)=C/C=C/[C@H](OC)[C@@H]([C@@H](C)[C@@H](O)[C@H](C)[C@@]2(O)C[C@@H](O)[C@H](C)[C@@H](C(C)C)O2)OC1=O [Bafilomycin A1] was tested. Which “EV-associated LC3 II” value [2] did it give?
A: The value was “elevated levels”.

Q: What about the “EV-associated LC3 I” value ([2]; Rapamycin 50 nM, INK128 50 nM) of the same compound?
A: The value was “elevated levels”.

Q: And the “EV-associated p62” value ([2]; Rapamycin 50 nM, INK128 50 nM)?
A: The value was “sustained levels”.

Q: How did the “levels of measured ESCRT proteins” value [3] turn out when O=C(O)CN(CCOCCOCCN(CC(=O)O)CC(=O)O)CC(=O)O [EGTA, ethylene glycol-bis(p-aminoethyl ether)-N,N,N′,N′-tetraacetic acid] was run?
A: The value was “no change”.

Q: With CN1CC[C@H](c2c(O)cc(O)c3c(=O)cc(-c4ccccc4Cl)oc23)[C@H](O)C1 [Flavo, Flavopiridol hydrochloride hydrate] as the compound, how does the “Pol II-associated TAR DNA versus untreated” value [4] read?
A: The value was “statistically significant decreases”.

Q: How did the “intracellular ATG12-ATG5” value [2, 5] turn out when CC(C)n1nc(-c2ccc3oc(N)nc3c2)c2c(N)ncnc21 [INK128] was run?
A: Its value is “low levels”.

Q: And the “intracellular Beclin-1” value [2, 5]?
A: The value was “high levels”.

Q: And the “intracellular LC3 I” value [2, 5]?
A: Its value is “low levels”.

Q: What about the “EV-associated LC3 I” value ([2]; Rapamycin 50 nM, INK128 50 nM) of the same compound?
A: Its value is “reduction”.

Q: What about the “EV-associated p62” value ([2]; Rapamycin 50 nM, INK128 50 nM) of the same compound?
A: Its value is “reduction”.

Q: Which results are given for C[S+]([O-])c1ccc(-c2nc(-c3ccncc3)c(-c3ccc(F)cc3)[nH]2)cc1 (stereo not drawn) [SB 203580]?
A: EV-associated LC3 II [2]: elevated levels; EV-associated LC3 I ([2]; Rapamycin 50 nM, INK128 50 nM): elevated levels; EV-associated p62 ([2]; Rapamycin 50 nM, INK128 50 nM): sustained levels

Q: How did the “amount of vesicles released (CD63 and CD9)” value [1] turn out when IFN-α was run?
A: The value was “decreases the amount of vesicles released”.
